According to PMC2289734 (The Journal of Cell Biology, 1992):

Key:
[1] = tested on: export of VSV-G protein from the ER; conditions: cited from earlier work
[2] = tested on: export of VSV-G protein from the ER; assay type: cell-based; conditions: for morphological effect on VSV-G export/transport: 45 min at 32°C
[3] = tested on: ER to Golgi transport of VSV-G protein; assay type: cell-based

For `C=C1[C@@H](O)[C@@H]2O[C@]3(CC[C@H](/C=C/[C@@H](C)[C@@H]4CC(C)=C[C@@]5(O[C@H](C[C@@](C)(O)C(=O)O)CC[C@H]5O)O4)O3)CC[C@H]2O[C@@H]1[C@@H](O)C[C@H](C)[C@H]1O[C@@]2(CCCCO2)CC[C@H]1C` [OKA, okadaic acid], the “effect on VSV-G protein exit from the ER” value [1] is given as “potently inhibit VSV-G protein exit from the ER”.
With `C/C=C(/C)C(=O)O[C@H]1C(C)=C2[C@H]([C@@H]1OC(=O)CCCCCCC)[C@@](C)(OC(C)=O)C[C@H](OC(=O)CCC)[C@@]1(O)[C@H]2OC(=O)[C@@]1(C)O` [thapsigargan] the “effect on VSV-G export in vitro” value [2] was “no effectof the drug”.
With AlCl3 the “effect on processing of VSV-G to the endo HR form” value [3] was “no effect” and the “morphological effect on VSV-G export/transport” value [2] was “did not inhibit”.
In the case of “guanosine-5'-O-(3-thiophospbate) [GTPTS]”, the “VSV-G containing punctate intermediates that contain rab1B” value [2] is reported as less than 10% and the “morphological effect on VSV-G export/transport” value [2] is reported as “concentrated in numerous small, punctate structures”.
